In patent publication US11873320B2 (REATA PHARMACEUTICALS HOLDINGS, LLC, priority 2013, dated 2024):

How the values were obtained:
[1] = system: cigarette smoke-induced COPD; test: cigarette smoke-induced COPD in mice; format: in vivo, mouse
Method: At the end of the study, lung tissue and BALF were collected for analysis of inflammatory infiltrates and cytokines. […] An AIM analog (63355) was tested in the same study for comparison. 63355 is a compound of the formula: […]

[2] = system: transaminase mRNA levels; test: transaminase gene expression in AML-12 hepatocytes; format: cell-based, mouse; conditions: 250 nM or 500 nM, 18 hours
Text: One hypothesis for this effect is that AIMs directly or indirectly increase transaminase gene expression in the absence of cellular toxicity.

[3] = system: glutathione levels; test: induction of glutathione levels, RAW264.7 mouse model; format: cell-based
Text: Glutathione and NADPH are critical factors required for the maintenance of cellular redox capacity. […] Data shown are representative of two independent experiments.

[4] = system: ocular inflammation; test: ocular inflammation after paracentesis in rabbits; format: in vivo, rabbit; conditions: 0.01% RTA 408 in the formulation
Method: Each rabbit was given three instillations within 60 minutes before induction of paracentesis and two instillations within 30 minutes after induction of paracentesis. Each instillation was 50 μL and given in both eyes. Aqueous humor for 6 animals per time-point was collected 30 minutes and again 2 hours after induction of paracentesis. The amount of inflammation was determined by protein concentration in the aqueous humor.

[5] = topical ocular administration pharmacokinetics in rabbits; format: in vivo, rabbit
Method: Using rabbits, the ocular absorption and systemic pharmacokinetic behavior of RTA 408 was evaluated.

[6] = system: bleomycin-induced pulmonary fibrosis; test: bleomycin-induced pulmonary fibrosis in mice; format: in vivo, mouse; conditions: 10, 30, or 100 mg/kg, 39 days
Method: Bleomycin was given on Day 0. Daily weights were measured. BAL fluid cell counts were obtained at sacrifice. […] No significant improvement in chronic inflammation score, interstitial fibrosis, or number of fibrotic foci was observed.
On the last day of dosing, lung tissue was collected and histology was performed to evaluate the extent of inflammation and interstitial fibrosis. […] Additional evaluation was performed using a rat model of pulmonary fibrosis that has been extensively characterized at the Lovelace Respiratory Research Institute. In this study, rats were challenged with bleomycin or saline by intratracheal administration on day 0. […] For the remaining animals, bronchoalveolar lavage fluid was collected on day 28 for assessment of pro-inflammatory infiltrates, and lung tissue was analyzed for hydroxyproline levels and histopathology. Challenge with bleomycin sulfate induced a substantial release of neutrophils and an increase in soluble collagen in the BALF, as well as an increase in hydroxyproline in the lung.

[7] = system: LPS-induced sepsis; conditions: mouse, in vivo
[8] = system: cynomolgus monkeys; test: cardiovascular evaluation in conscious cynomolgus monkeys (telemetry); format: in vivo, monkey
Method: Animals were instrumented with telemetry transmitters for measurement of body temperature, blood pressure, heart rate, and electrocardiogram (ECG) evaluation. Body temperature, systolic, diastolic, and mean arterial blood pressure, heart rate, and ECG parameters (QRS duration and RR, PR, and QT intervals) were monitored continuously from at least 2 hours pre-dose until at least 24 hours post-dose. ECG tracings were printed at designated time points from the cardiovascular monitoring data and were qualitatively evaluated by a board-certified veterinary cardiologist.
Observations for morbidity, mortality, injury, and availability of food and water were conducted at least twice daily for all animals. Clinical observations were conducted pre-dose, approximately 4 hours post-dose, and following completion of the cardiovascular monitoring period. Body weights were measured and recorded on the day prior to each treatment administration.

[9] = system: genotoxicity (micronucleated polychromatic erythrocytes); test: in vivo micronucleus study
[10] = metabolism in human liver microsomes
[11] = system: NQO1; test: NQO1 activity in mouse tissues, 25 mg/kg PO QD×3; format: in vivo
[12] = system: NQO1 protein; test: Nrf2 target protein levels in SH-SY5Y cells; format: cell-based, human; conditions: dose-dependent
Method: HMOX1 protein was not detected in untreated or RTA 408-treated SH-SY5Y cells. […] The same amount of 63170 (54.6 nM) was required.

[13] = system: fractionated radiation dermatitis; test: fractionated radiation dermatitis model, Balb/c mice; format: in vivo, mouse; conditions: 0.1 to 1% topical formulations
Method: The mice were irradiated on days 0-2 and 5-7 with six 10-Gy doses […]. Clinical dermatitis scores for the mice were evaluated blindly every two days from day 4 until the end of the study. […] Study and treatment parameters can be found in Table 6.
By analyzing the average clinical scores that were shown in FIG. 43, an area under the curve (AUC) analysis was performed, which yielded the severity of the dermatitis relative to how long the dermatitis persisted.

With `CC1(C)CC[C@]2(NC(=O)C(C)(F)F)CC[C@]3(C)[C@H](C(=O)C=C4[C@@]5(C)C=C(C#N)C(=O)C(C)(C)[C@@H]5CC[C@]43C)[C@@H]2C1` [RTA 408, N-((4aS,6aR,6bS,8aR,12aS,14aR,14bS)-11-cyano-2,2,6a,6b,9,9,12a-heptamethyl-10,14-dioxo-1,2,3,4,4a,5,6,6a,6b,7,8,8a,9,10,12a,14,14a,14b-octadecahydropicen-4a-yl)-2,2-difluoropropanamide] the “lung Txnrd enzyme activity” value ([1]; 30 mg/kg) was “induced”, the “pro-inflammatory cytokines including KC and TNFα” value ([1]; doses as low as 3 mg/kg, two weeks) was “significant suppression of pro-inflammatory cytokines” and the “lung Gsr enzyme activity” value ([1]; mouse, in vivo) was “not altered”. For the same molecule, the “lung Gst enzyme activity” value ([1]; mouse, in vivo) was “decreased with treatment”, the “lung NQO1 enzyme activity decreased by cigarette smoke” value ([1]; mouse, in vivo) was “rescued this loss” and the “alanine transaminase 1 (Alt1 or Gpt1) mRNA” value [2] was “increased mRNA levels”. For the same molecule, the “alanine transaminase 2 (Alt2 or Gpt2) mRNA” value [2] was “no effect”, the “aspartate transaminase 1 (Ast1 or Got1) mRNA” value [2] was “increased mRNA levels” and the “aspartate transaminase 2 (Ast2 or Got2) mRNA” value [2] was “reduced mRNA levels”. For the same molecule, the EC50 [3] was 9.9 nM, the “aqueous humor protein concentration” value [4] was “reduction in aqueous humor protein similar to that of the highest concentration of any of the other reference compounds” and the “eye tissues with the highest concentrations” value ([5]; ocular topical administration) was “cornea, retina, or iris”. The “plasma concentrations after oral vs topical ocular administration” value ([5]; once per day for 5 days) was ~100 fold, the “inflammation and interstitial fibrosis (histology)” value [6] was “no statistically significant effects” and the “survival, systemic LPS” value [7] was “improved survival”. For the same molecule, the “increase in the corrected QT interval (average)” value ([8]; 100 mg/kg oral, not considered related to treatment) was 1.6%, the “effects on cardiovascular function” value ([8]; doses up to and including 100 mg/kg oral) was “no effects on cardiovascular function” and the “Change from Control (%)” value ([9]; 125 mg/kg, 24-h timepoint) was −8%. The “Number of MPCE/1000 PCE (Mean +/− SD)” value ([9]; 125 mg/kg, 24-h timepoint) was 0.3 ± 0.27, the “Number of MPCE/PCE Scored” value ([9]; 125 mg/kg, 24-h timepoint) was 3/10000 and the “PCE/Total Erythrocytes (Mean +/− SD)” value ([9]; 125 mg/kg, 24-h timepoint) was 0.543 ± 0.03. The “Change from Control (%)” value ([9]; 125 mg/kg, 48-h timepoint) was −14%, the “Number of MPCE/1000 PCE (Mean +/− SD)” value ([9]; 125 mg/kg, 48-h timepoint) was 0.2 ± 0.27 and the “Number of MPCE/PCE Scored” value ([9]; 125 mg/kg, 48-h timepoint) was 2/10000. For the same molecule, the “PCE/Total Erythrocytes (Mean +/− SD)” value ([9]; 125 mg/kg, 48-h timepoint) was 0.453 ± 0.03, the “Change from Control (%)” value ([9]; 250 mg/kg, 24-h timepoint) was −12% and the “Number of MPCE/1000 PCE (Mean +/− SD)” value ([9]; 250 mg/kg, 24-h timepoint) was 0.3 ± 0.27. For the same molecule, the “Number of MPCE/PCE Scored” value ([9]; 250 mg/kg, 24-h timepoint) was 3/10000, the “PCE/Total Erythrocytes (Mean +/− SD)” value ([9]; 250 mg/kg, 24-h timepoint) was 0.520 ± 0.06 and the “Change from Control (%)” value ([9]; 250 mg/kg, 48-h timepoint) was −26%. For the same molecule, the “Number of MPCE/1000 PCE (Mean +/− SD)” value ([9]; 250 mg/kg, 48-h timepoint) was 0.2 ± 0.27, the “Number of MPCE/PCE Scored” value ([9]; 250 mg/kg, 48-h timepoint) was 2/10000 and the “PCE/Total Erythrocytes (Mean +/− SD)” value ([9]; 250 mg/kg, 48-h timepoint) was 0.391 ± 0.02. The “Change from Control (%)” value ([9]; 500 mg/kg, 24-h timepoint) was −28%, the “Number of MPCE/1000 PCE (Mean +/− SD)” value ([9]; 500 mg/kg, 24-h timepoint) was 0.0 ± 0.00 and the “Number of MPCE/PCE Scored” value ([9]; 500 mg/kg, 24-h timepoint) was 0/10000. The “PCE/Total Erythrocytes (Mean +/− SD)” value ([9]; 500 mg/kg, 24-h timepoint) was 0.426 ± 0.07, the “Change from Control (%)” value ([9]; 500 mg/kg, 48-h timepoint) was −36% and the “Number of MPCE/1000 PCE (Mean +/− SD)” value ([9]; 500 mg/kg, 48-h timepoint) was 0.3 ± 0.45. For the same molecule, the “Number of MPCE/PCE Scored” value ([9]; 500 mg/kg, 48-h timepoint) was 3/10000, the “PCE/Total Erythrocytes (Mean +/− SD)” value ([9]; 500 mg/kg, 48-h timepoint) was 0.339 ± 0.05 and the “Change from Control (%)” value ([9]; 1000 mg/kg, 24-h timepoint) was −15%. For the same molecule, the “Number of MPCE/1000 PCE (Mean +/− SD)” value ([9]; 1000 mg/kg, 24-h timepoint) was 0.2 ± 0.27, the “Number of MPCE/PCE Scored” value ([9]; 1000 mg/kg, 24-h timepoint) was 2/10000 and the “PCE/Total Erythrocytes (Mean +/− SD)” value ([9]; 1000 mg/kg, 24-h timepoint) was 0.498 ± 0.05. For the same molecule, the “Change from Control (%)” value ([9]; 1000 mg/kg, 48-h timepoint) was −35%, the “Number of MPCE/1000 PCE (Mean +/− SD)” value ([9]; 1000 mg/kg, 48-h timepoint) was 0.1 ± 0.22 and the “Number of MPCE/PCE Scored” value ([9]; 1000 mg/kg, 48-h timepoint) was 1/10000. For the same molecule, the “PCE/Total Erythrocytes (Mean +/− SD)” value ([9]; 1000 mg/kg, 48-h timepoint) was 0.344 ± 0.04, the “Change from Control (%)” value ([9]; 1500 mg/kg, 24-h timepoint) was −15% and the “Number of MPCE/1000 PCE (Mean +/− SD)” value ([9]; 1500 mg/kg, 24-h timepoint) was 0.4 ± 0.22. For the same molecule, the “Number of MPCE/PCE Scored” value ([9]; 1500 mg/kg, 24-h timepoint) was 4/10000, the “PCE/Total Erythrocytes (Mean +/− SD)” value ([9]; 1500 mg/kg, 24-h timepoint) was 0.499 ± 0.06 and the “Change from Control (%)” value ([9]; 1500 mg/kg, 48-h timepoint) was −39%. The “Number of MPCE/1000 PCE (Mean +/− SD)” value ([9]; 1500 mg/kg, 48-h timepoint) was 0.4 ± 0.42, the “Number of MPCE/PCE Scored” value ([9]; 1500 mg/kg, 48-h timepoint) was 4/10000 and the “PCE/Total Erythrocytes (Mean +/− SD)” value ([9]; 1500 mg/kg, 48-h timepoint) was 0.376 ± 0.05. For the same molecule, the “Change from Control (%)” value ([9]; 2000 mg/kg, 24-h timepoint) was −10%, the “Number of MPCE/1000 PCE (Mean +/− SD)” value ([9]; 2000 mg/kg, 24-h timepoint) was 0.2 ± 0.27 and the “Number of MPCE/PCE Scored” value ([9]; 2000 mg/kg, 24-h timepoint) was 2/10000. For the same molecule, the “PCE/Total Erythrocytes (Mean +/− SD)” value ([9]; 2000 mg/kg, 24-h timepoint) was 0.531 ± 0.05, the “Change from Control (%)” value ([9]; 2000 mg/kg, 48-h timepoint) was −32% and the “Number of MPCE/1000 PCE (Mean +/− SD)” value ([9]; 2000 mg/kg, 48-h timepoint) was 0.1 ± 0.22. For the same molecule, the “Number of MPCE/PCE Scored” value ([9]; 2000 mg/kg, 48-h timepoint) was 1/10000, the “PCE/Total Erythrocytes (Mean +/− SD)” value ([9]; 2000 mg/kg, 48-h timepoint) was 0.360 ± 0.03 and the “genotoxicity in the in vivo micronucleus study” value ([9]; 125-2000 mg/kg) was 63415 is Negative for Genotoxicity. For the same molecule, the unique human metabolites [10] was “No unique human metabolites”, the parent molecule remaining ([10]; 60-minute incubation, NADPH and UGT) was < 10% and the “activation of NQO1 in multiple tissues” value [11] was “Meaningful activation of NQO1”. The NQO1 protein levels [12] was “increased NQO1 protein levels” and the “average clinical dermatitis scores over time” value [13] was “statistically significant improvement in the scores”.
